Legend:
[1] = Inhibition of ERK phosphorylation in human GP2d cells harboring KRAS G12D mutant incubated for 3 hrs by ICW assay; type: cell-based
[2] = target: SOS1-KRAS (Homo sapiens, UniProt P01116, G12D); assay: (§1) Inhibition of GST-tagged KRAS G12D mutant (2 to 169 residues) (unknown origin)/SOS1 catalytic domain (564 to 1069 residues) (unknown origin) protein-protein interaction preincubated with compound for 90 mins followed by SOS1 and GTP-DY-647P1 addition and measured after 30 mins by fluorescence based nucleotide exchange assay; type: protein-complex assay
[3] = as §1, with “G12V” for “G12D”, “60” for “30”; design: species or system Homo sapiens

| Compound | IC50 [1] [nM] | IC50 [2] [nM] | IC50 [3] [nM] |
| --- | --- | --- | --- |
| CN(C)C(=O)c1nn2c(c1Cl)CN(c1nc(OC[C@@]34CCCN3C[C@H](F)C4)nc(N3CCC(c4c(Cl)sc(N)c4C#N)C3)c1C#N)CCC2 (stereo partly specified) | 10 | < 10 | < 10 |
| CN(C)C(=O)c1nn2c(c1Cl)CN(c1nc(OC[C@@]34CCCN3C[C@H](F)C4)nc(N3CC(c4csc(N)c4C#N)C3)c1C#N)CCC2 | 100 | < 10 | < 10 |
| CN(C)C(=O)c1nn2c(c1Cl)CN(c1cc(N3CC(C)(c4csc(N)c4C#N)C3)nc(OC[C@@]34CCCN3C[C@H](F)C4)n1)CCC2 | 1000 | 10 |  |
| CC1(c2csc(N)c2C#N)CN(c2nc(OC[C@@]34CCCN3C[C@H](F)C4)nc(N3C[C@H]4CC[C@@H](C3)N4)c2C#N)C1 | 10 | < 10 |  |

Further compounds by falling IC50 [1], results first:

| IC50 [1] [nM] | IC50 [2] [nM] | IC50 [3] [nM] | Compound |
| --- | --- | --- | --- |
| 10 | < 10 | < 10 | C[C@H](c1cccnc1N)N(C)c1nc(OC[C@@]23CCCN2C[C@H](F)C3)nc(N2CC(C)(c3csc(N)c3C#N)C2)c1C#N |
| 1 | < 10 | < 10 | CN(C)C(=O)c1nn2c(c1Cl)CN(c1nc(OC[C@@]34CCCN3C[C@H](F)C4)nc(N3CC(c4c(Cl)sc(N)c4C#N)C3)c1C#N)CCC2 |
